Laboratory results published in patent US11622970B2, “BCL-2 inhibitors and their use as pharmaceuticals” (PRELUDE THERAPEUTICS INCORPORATED, priority 2020, dated 2023).

Biological target: BCL-2 recombinant protein (Homo sapiens, UniProt P10415)
Experiment: Cell free Bcl-2:Bak affinity assay (Bcl-2 Bak), HTRF competition of FAM-Bak peptide
Type: binding
Conditions: 1 μM compound, 4 nM BCL-2 recombinant protein, 100 nM FAM-Bak, read-out: potency (% inhibition at 1 μM)
Protocol: Biological Assays: Cell Free Bcl-2:Bak Affinity Assay (Bcl-2 Bak)
The assay is based on the competition of fluorescently labeled peptide binding to BCL-2 and the binding is monitored by HTRF signals between anti-GST-Tb and FAM-peptide using GST-Tag BCL proteins. Testing compounds were dissolved in DMSO at 10 mM and tested in 10-concentration IC50 mode. The compounds of interest in DMSO were added in 3-fold serial dilution to each well containing 4 nM of BCL-2 recombinant protein, 20 mM K Phosphate, pH 7.5, 50 mM NaCl, 1 mM EDTA, 0.005% Triton X-100, by using acoustic technology (Labcyte echo 550), After 10 minutes incubation at room temperature, 100 nM of FAM-Bak was added and incubated for another 10 minutes before addition of Anti-GST-Tb. The plate was then sealed and further incubated at room temperature for 60 minutes in the dark before reading. Percentage of inhibition was calculated by % inhibition=100×(FDMSO−F)/(FDMSO−FPC), in which FDMSO is DMSO control and FPC is a positive control. IC50 values were determined from dose-response curve by fitting the percent inhibition against compound concentration using GraphPad Prism software.

Sequence of BCL-2 recombinant protein (P10415 whole entry): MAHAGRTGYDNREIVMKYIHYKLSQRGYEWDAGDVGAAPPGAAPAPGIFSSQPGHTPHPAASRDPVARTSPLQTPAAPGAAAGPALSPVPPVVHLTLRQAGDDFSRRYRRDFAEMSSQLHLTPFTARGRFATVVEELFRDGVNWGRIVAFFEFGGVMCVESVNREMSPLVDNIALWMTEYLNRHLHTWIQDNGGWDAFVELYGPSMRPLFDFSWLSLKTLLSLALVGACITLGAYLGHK

inhibition at 1 µM [%]	Compound
< 50	Cc1ccc(CC(=O)NS(=O)(=O)c2ccc(N3CCN(CC4=C(c5ccc(Cl)cc5)CC(C)(C)CC4)CC3)cc2)cn1 [Example 26, N-([4-[4-[[2-(4-chlorophenyl)-4,4-dimethylcyclohexen-1-yl]methyl]piperazin-1-yl]phenyl]sulfonyl)-2-(6-methylpyridin-3-yl)acetamide]
50 to 90	CC1(C)CCC(CN2CCN(c3ccc(S(=O)(=O)NC(=O)Cc4ccccc4F)cc3)CC2)=C(c2ccc(Cl)cc2)C1 [Example 30, N-([4-[4-[[2-(4-chlorophenyl)-4,4-dimethylcyclohexen-1-yl]methyl]piperazin-1-yl]phenyl]sulfonyl)-2-(2-fluorophenyl)acetamide]
< 50	CC1(C)CCC(CN2CCN(c3ccc(S(=O)(=O)NC(=O)CCc4cccnc4)cc3)CC2)=C(c2ccc(Cl)cc2)C1 [Example 31, N-([4-[4-[[2-(4-chlorophenyl)-4,4-dimethylcyclohexen-1-yl]methyl]piperazin-1-yl]phenyl]sulfonyl)-3-(pyridin-3-yl)propanamide]

The next lines start with the molecule.

Compound	inhibition at 1 µM [%]
CC1(C)CCC(CN2CCN(c3ccc(S(=O)(=O)NC(=O)c4ccc5ccsc5n4)cc3)CC2)=C(c2ccc(Cl)cc2)C1 [Example 27, N-([4-[4-[[2-(4-chlorophenyl)-4,4-dimethylcyclohexen-1-yl]methyl]piperazin-1-yl]phenyl]sulfonyl)thieno[2,3-b]pyridine-6-carboxamide]	50 to 90
CC1(C)CCC(CN2CCN(c3ccc(S(=O)(=O)NC(=O)C4CC=CCC4)cc3)CC2)=C(c2ccc(Cl)cc2)C1 (centres unmarked) [Example 28, N-([4-[4-[[2-(4-chlorophenyl)-4,4-dimethylcyclohexen-1-yl]methyl]piperazin-1-yl]phenyl]sulfonyl)cyclohex-3-ene-1-carboxamide]	< 50
CC1(C)CCC(CN2CCN(c3ccc(S(=O)(=O)NC(=O)C4(c5ccc([N+](=O)[O-])cc5)CC4)cc3)CC2)=C(c2ccc(Cl)cc2)C1 [Example 29, N-([4-[4-[[2-(4-chlorophenyl)-4,4-dimethylcyclohexen-1-yl]methyl]piperazin-1-yl]phenyl]sulfonyl)-1-(4-nitrophenyl)cyclopropane-1-carboxamide]	< 50
Cc1cccc(COc2cccc(C(=O)NS(=O)(=O)c3ccc(N4CCN(CC5=C(c6ccc(Cl)cc6)CC(C)(C)CC5)CC4)cc3)c2)c1 [Example 34, N-([4-[4-[[2-(4-chlorophenyl)-4,4-dimethylcyclohexen-1-yl]methyl]piperazin-1-yl]phenyl]sulfonyl)-3-((3-methylbenzyl)oxy)benzamide]	50 to 90
CC1(C)CCC(CN2CCN(c3ccc(S(=O)(=O)NC(=O)c4ccc(COc5cc(Cl)ccc5Cl)cc4)cc3)CC2)=C(c2ccc(Cl)cc2)C1 [Example 35, N-([4-[4-[[2-(4-chlorophenyl)-4,4-dimethylcyclohexen-1-yl]methyl]piperazin-1-yl]phenyl]sulfonyl)-4-((2,5-dichlorophenoxy)methyl)benzamide]	> 90
CC1(C)CCC(CN2CCN(c3ccc(S(=O)(=O)NC(=O)c4ccc(OCc5ccccc5)c([N+](=O)[O-])c4)cc3)CC2)=C(c2ccc(Cl)cc2)C1 [Example 36, 4-(benzyloxy)-N-([4-[4-[[2-(4-chlorophenyl)-4,4-dimethylcyclohexen-1-yl]methyl]piperazin-1-yl]phenyl]sulfonyl)-3-nitrobenzamide]	50 to 90

Same assay, conditions: 10-concentration IC50 mode, 4 nM BCL-2 recombinant protein, 100 nM FAM-Bak, read-out: potency (IC50)

IC50 [nM]	Compound
> 1000	CC1(C)CCC(CN2CCN(c3ccc(S(=O)(=O)NC(=O)c4cccc([N+](=O)[O-])c4)cc3)CC2)=C(c2ccc(Cl)cc2)C1 [Example 32, N-([4-[4-[[2-(4-chlorophenyl)-4,4-dimethylcyclohexen-1-yl]methyl]piperazin-1-yl]phenyl]sulfonyl)-3-nitrobenzamide]
10 to 100	CC1(C)CCC(CN2CCN(c3ccc(S(=O)(=O)NC(=O)c4ccc(F)c(Br)n4)cc3)CC2)=C(c2ccc(Cl)cc2)C1 [Example 33, 6-bromo-N-([4-[4-[[2-(4-chlorophenyl)-4,4-dimethylcyclohexen-1-yl]methyl]piperazin-1-yl]phenyl]sulfonyl)-5-fluoropyridine-2-carboxamide]
